Data on 1 compound can be found in PMC6118079 (Iranian Journal of Basic Medical Sciences, 2018).

The assay concerns krait snake venom acetylcholinesterase (AChE). The assay is classed as biochemical, Bungarus sindanus. The note with it: no extract (control); 0.5-1 mM substrate, 50 mM phosphate pH 7.4, 37 °C; crude venom as enzyme source.

With `CC(=O)SCC[N+](C)(C)C` [acetylthiocholine], the Michaelis constant (Km) worked out at 160 µM.
